± gives the standard deviation of the averaged measurements.
Experiments:
SAPACITABINE [1] = compound: T1, CCCCCCCCCCCCCCCC(=O)Nc1ccn([C@@H]2O[C@H](CO)[C@@H](O)[C@@H]2C#N)c(=O)n1 [SAPACITABINE]; assay: area under dose-response curve of surviving fraction (unscaled, Aref=0) (surviving fraction x log10(nM)); higher = more resistant; conditions: exposure time: 5 days; dose range 0.5-1000 nM
In short: (§1)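 Surviving fractions were fitted by 3-parameter logistic regression in the drc R package to give dose-response survival curves. They came from tumour cell lines treated for five days with eight inhibitor concentrations from 0.5 to 1000 nM and read by CellTiter-Glo luminescence against DMSO-only wells. The area under the curve is the unscaled activity area. It was calculated over log10 dose with Aref = 0.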

CANERTINIB [2] = compound: T2, C=CC(=O)Nc1cc2c(Nc3ccc(F)c(Cl)c3)ncnc2cc1OCCCN1CCOCC1 [CANERTINIB]; assay: as above; conditions: exposure time: 5 days; dose range 0.5-1000 nM
In short: as §1

MDV3100 [3] = compound: T3, CNC(=O)c1ccc(N2C(=S)N(c3ccc(C#N)c(C(F)(F)F)c3)C(=O)C2(C)C)cc1F [MDV3100]; assay: as above; conditions: exposure time: 5 days; dose range 0.5-1000 nM
In short: as §1

SAPACITABINE [4] = compound: T1, SAPACITABINE; assay: surviving fraction relative to DMSO-only wells; higher = less growth inhibition; conditions: exposure time: 5 days
In short: (§2)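 After seeding at 250–500 cells per well in 384-well plates and a 24-hour wait, log-phase tumour cell lines were exposed without interruption for five days to inhibitors at 0.5, 1, 5, 10, 50, 100, 500 and 1000 nM. CellTiter-Glo luminescence was recorded after 10 minutes at room temperature. Viability is reported as surviving fraction, the luminescence normalised to the median of DMSO-only wells.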

CANERTINIB [5] = compound: T2, CANERTINIB; assay: as above; conditions: exposure time: 5 days
In short: as §2

MDV3100 [6] = compound: T3, MDV3100; assay: as above; conditions: exposure time: 5 days
In short: as §2

BI-2536 [7] = compound: T4, CC[C@@H]1C(=O)N(C)c2cnc(Nc3ccc(C(=O)NC4CCN(C)CC4)cc3OC)nc2N1C1CCCC1 [BI-2536]; assay: area under dose-response curve of surviving fraction (unscaled, Aref=0) (surviving fraction x log10(nM)); higher = more resistant; conditions: exposure time: 5 days; dose range 0.5-1000 nM
In short: as §1

[8] = compound: Cn1cc(C2=Nc3cc(NC(=O)C(N)C4CCCCC4)cc4c3C2=CNNC4=O)cn1; assay: as above; conditions: exposure time: 5 days; dose range 0.5-1000 nM
In short: as §1

AFATINIB [9] = compound: T5, CN(C)C/C=C/C(=O)Nc1cc2c(Nc3ccc(F)c(Cl)c3)ncnc2cc1O[C@H]1CCOC1 [AFATINIB]; assay: as above; conditions: exposure time: 5 days; dose range 0.5-1000 nM
In short: as §1

SNX-5422 [10] = compound: T6, CC1(C)CC(=O)c2c(C(F)(F)F)nn(-c3ccc(C(N)=O)c(N[C@H]4CC[C@H](OC(=O)CN)CC4)c3)c2C1 [SNX-5422]; assay: as above; conditions: exposure time: 5 days; dose range 0.5-1000 nM
In short: as §1

BI-2536 [11] = compound: T4, BI-2536; assay: surviving fraction relative to DMSO-only wells; higher = less growth inhibition; conditions: exposure time: 5 days
In short: as §2

[12] = compound: Cn1cc(C2=Nc3cc(NC(=O)C(N)C4CCCCC4)cc4c3C2=CNNC4=O)cn1; assay: as above; conditions: exposure time: 5 days
In short: as §2

AFATINIB [13] = compound: T5, AFATINIB; assay: as above; conditions: exposure time: 5 days
In short: as §2

TIOGUANINE = compound: Nc1nc2[nH]cnc2c(=S)[nH]1 [TIOGUANINE]; assay: as above; conditions: exposure time: 5 days
In short: as §2

SNX-5422 [14] = compound: T6, SNX-5422; assay: as above; conditions: exposure time: 5 days
In short: as §2

## CCK81 LARGE INTESTINE
SAPACITABINE [1]
  area under dose-response curve: 2.16
CANERTINIB [2]
  area under dose-response curve: 1.68
MDV3100 [3]
  area under dose-response curve: 2.49
SAPACITABINE [4]; 0.5 nM
  surviving fraction: 0.972 ± 0.18
SAPACITABINE [4]; 1 nM
  surviving fraction: 0.94 ± 0.2
SAPACITABINE [4]; 5 nM
  surviving fraction: 0.813 ± 0.13
SAPACITABINE [4]; 10 nM
  surviving fraction: 0.7 ± 0.13
SAPACITABINE [4]; 50 nM
  surviving fraction: 0.427 ± 0.12
SAPACITABINE [4]; 100 nM
  surviving fraction: 0.482 ± 0.041
SAPACITABINE [4]; 500 nM
  surviving fraction: 0.456 ± 0.047
SAPACITABINE [4]; 1000 nM
  surviving fraction: 0.47 ± 0.056
CANERTINIB [5]; 0.5 nM
  surviving fraction: 0.778 ± 0.19
CANERTINIB [5]; 1 nM
  surviving fraction: 0.874 ± 0.16
CANERTINIB [5]; 5 nM
  surviving fraction: 0.928 ± 0.13
CANERTINIB [5]; 10 nM
  surviving fraction: 0.816 ± 0.18
CANERTINIB [5]; 50 nM
  surviving fraction: 0.186 ± 0.03
CANERTINIB [5]; 100 nM
  surviving fraction: 0.0957 ± 0.019
CANERTINIB [5]; 500 nM
  surviving fraction: 0.0373 ± 0.0083
CANERTINIB [5]; 1000 nM
  surviving fraction: 0.0263 ± 0.0059
MDV3100 [6]; 0.5 nM
  surviving fraction: 0.843 ± 0.11
MDV3100 [6]; 1 nM
  surviving fraction: 0.8 ± 0.19
MDV3100 [6]; 5 nM
  surviving fraction: 0.717 ± 0.076
MDV3100 [6]; 10 nM
  surviving fraction: 0.728 ± 0.046
MDV3100 [6]; 50 nM
  surviving fraction: 0.75 ± 0.091
MDV3100 [6]; 100 nM
  surviving fraction: 0.757 ± 0.068
MDV3100 [6]; 500 nM
  surviving fraction: 0.79 ± 0.03
MDV3100 [6]; 1000 nM
  surviving fraction: 0.728 ± 0.06

## HCT15 LARGE INTESTINE
SAPACITABINE [1]
  area under dose-response curve: 1.34
BI-2536 [7]
  area under dose-response curve: 1.88
[8]
  area under dose-response curve: 3.4
AFATINIB [9]
  area under dose-response curve: 3.26
CANERTINIB [2]
  area under dose-response curve: 2.73
SNX-5422 [10]
  area under dose-response curve: 2.24
MDV3100 [3]
  area under dose-response curve: 2.75
SAPACITABINE [4]; 0.5 nM
  surviving fraction: 0.76 ± 0.048
SAPACITABINE [4]; 1 nM
  surviving fraction: 0.693 ± 0.056
SAPACITABINE [4]; 5 nM
  surviving fraction: 0.713 ± 0.064
SAPACITABINE [4]; 10 nM
  surviving fraction: 0.298 ± 0.063
SAPACITABINE [4]; 50 nM
  surviving fraction: 0.458 ± 0.074
SAPACITABINE [4]; 100 nM
  surviving fraction: 0.143 ± 0.021
SAPACITABINE [4]; 500 nM
  surviving fraction: 0.141 ± 0.013
SAPACITABINE [4]; 1000 nM
  surviving fraction: 0.0447 ± 0.0085
BI-2536 [11]; 0.5 nM
  surviving fraction: 1.08 ± 0.044
BI-2536 [11]; 1 nM
  surviving fraction: 1.04 ± 0.011
BI-2536 [11]; 5 nM
  surviving fraction: 1.07 ± 0.026
BI-2536 [11]; 10 nM
  surviving fraction: 0.887 ± 0.032
BI-2536 [11]; 50 nM
  surviving fraction: 0.334 ± 0.048
BI-2536 [11]; 100 nM
  surviving fraction: 0.0687 ± 0.014
BI-2536 [11]; 500 nM
  surviving fraction: 0.069 ± 0.004
BI-2536 [11]; 1000 nM
  surviving fraction: 0.0617 ± 0.0076
[12]; 0.5 nM
  surviving fraction: 0.997 ± 0.079
[12]; 1 nM
  surviving fraction: 1.05 ± 0.034
[12]; 5 nM
  surviving fraction: 1.07 ± 0.0081
[12]; 10 nM
  surviving fraction: 1.05 ± 0.037
[12]; 50 nM
  surviving fraction: 1 ± 0.063
[12]; 100 nM
  surviving fraction: 1.05 ± 0.045
[12]; 500 nM
  surviving fraction: 1 ± 0.031
[12]; 1000 nM
  surviving fraction: 0.951 ± 0.028
AFATINIB [13]; 0.5 nM
  surviving fraction: 1.12 ± 0.03
AFATINIB [13]; 1 nM
  surviving fraction: 1.05 ± 0.02
AFATINIB [13]; 5 nM
  surviving fraction: 1.04 ± 0.064
AFATINIB [13]; 10 nM
  surviving fraction: 1.05 ± 0.027
AFATINIB [13]; 50 nM
  surviving fraction: 1.1 ± 0.052
AFATINIB [13]; 100 nM
  surviving fraction: 1.06 ± 0.068
AFATINIB [13]; 500 nM
  surviving fraction: 0.97 ± 0.081
AFATINIB [13]; 1000 nM
  surviving fraction: 0.632 ± 0.063
CANERTINIB [5]; 0.5 nM
  surviving fraction: 0.868 ± 0.082
CANERTINIB [5]; 1 nM
  surviving fraction: 0.78 ± 0.053
CANERTINIB [5]; 5 nM
  surviving fraction: 0.775 ± 0.11
CANERTINIB [5]; 10 nM
  surviving fraction: 0.79 ± 0.064
CANERTINIB [5]; 50 nM
  surviving fraction: 0.852 ± 0.035
CANERTINIB [5]; 100 nM
  surviving fraction: 0.869 ± 0.068
CANERTINIB [5]; 500 nM
  surviving fraction: 0.843 ± 0.079
CANERTINIB [5]; 1000 nM
  surviving fraction: 0.841 ± 0.076
TIOGUANINE; 0.5 nM
  surviving fraction: 0.968 ± 0.012
TIOGUANINE; 1 nM
  surviving fraction: 0.913 ± 0.05
TIOGUANINE; 5 nM
  surviving fraction: 0.979 ± 0.016
TIOGUANINE; 10 nM
  surviving fraction: 0.967 ± 0.051
TIOGUANINE; 50 nM
  surviving fraction: 1.02 ± 0.067
TIOGUANINE; 100 nM
  surviving fraction: 1.06 ± 0.023
TIOGUANINE; 500 nM
  surviving fraction: 1.04 ± 0.015
TIOGUANINE; 1000 nM
  surviving fraction: 0.995 ± 0.012
SNX-5422 [14]; 0.5 nM
  surviving fraction: 1.05 ± 0.018
SNX-5422 [14]; 1 nM
  surviving fraction: 1.03 ± 0.029
SNX-5422 [14]; 5 nM
  surviving fraction: 1.06 ± 0.051
SNX-5422 [14]; 10 nM
  surviving fraction: 1.09 ± 0.022
SNX-5422 [14]; 50 nM
  surviving fraction: 0.77 ± 0.12
SNX-5422 [14]; 100 nM
  surviving fraction: 0.303 ± 0.03
SNX-5422 [14]; 500 nM
  surviving fraction: 0.0797 ± 0.0015
SNX-5422 [14]; 1000 nM
  surviving fraction: 0.074 ± 0.009
MDV3100 [6]; 0.5 nM
  surviving fraction: 0.906 ± 0.038
MDV3100 [6]; 1 nM
  surviving fraction: 0.797 ± 0.11
MDV3100 [6]; 5 nM
  surviving fraction: 0.862 ± 0.075
MDV3100 [6]; 10 nM
  surviving fraction: 0.548 ± 0.11
MDV3100 [6]; 50 nM
  surviving fraction: 0.938 ± 0.021
MDV3100 [6]; 100 nM
  surviving fraction: 0.916 ± 0.027
MDV3100 [6]; 500 nM
  surviving fraction: 0.968 ± 0.019
MDV3100 [6]; 1000 nM
  surviving fraction: 0.716 ± 0.1

From the supplement of paper PMC6045584
